How the values were obtained:
[1] = Stability of HPLC sample and standard solutions in diluent; format: physicochemical; conditions: approx. 20 mg in 100 mL diluent (45:55 v/v water and acetonitrile); room temperature for 2 days protected from sunlight
Method: (§1) Approximately 20 mg of the crystalline halobetasol propionate sample to be assayed, accurately weighed, was transferred into a 100-mL volumetric flask, and the flask was filled to volume with diluent. The solution was sonicated to ensure complete dissolution. The sample solution was stable at room temperature for 2 days protected from sunlight.
as §1, with “of a” for “of the”, “propionate standard,” for “propionate sample to be assayed,”, “The standard” for “The sample”

[2] = cited from earlier work

- stability of the solution [1]: stable
SMILES: CCC(=O)O[C@]1(C(=O)CCl)[C@@H](C)C[C@H]2[C@@H]3C[C@H](F)C4=CC(=O)C=C[C@]4(C)[C@@]3(F)[C@@H](O)C[C@@]21C [Halobetasol propionate, (6α,11β,16β)-21-chloro-6,9-difluoro-11-hydroxy-16-methyl-17-(1-oxopropoxy)pregna-1,4-diene-3,20-dione]
- solubility in organic solvents ([2]; organic solvents): soluble
- solubility in water ([2]; water): insoluble

— patent US8361997B2, “Process for preparing a crystalline form of halobetasol propionate” (Taro Pharmaceutical North America, Inc., priority 2005, dated 2013)
